Values joined by “and” are separate entries in the source; they are usually repeats but may differ in a detail not shown here. Equal entries are not always repeated.
How the values were obtained:
P. falciparum Dd2^Dd2 = system: P. falciparum Dd2^Dd2; parameters: key to Phenotype, Dd2^Dd2: S: sensitive; R: resistant; details: cited from earlier work
P. falciparum Dd2^T93S = system: P. falciparum Dd2^T93S; parameters: key to Phenotype, Dd2^T93S: S: sensitive; R: resistant; details: cited from earlier work
P. falciparum Dd2^M343L = system: P. falciparum Dd2^M343L; parameters: key to Phenotype, Dd2^M343L: S: sensitive; R: resistant; details: cited from earlier work
P. falciparum Dd2^3D7 = system: P. falciparum Dd2^3D7; parameters: key: S: sensitive; R: resistant; details: ref [19],[20],[51]; cited from earlier work
P. falciparum 7G8^C350R = system: P. falciparum 7G8^C350R; parameters: key to Phenotype, 7G8^C350R: S: sensitive; R: resistant; details: cited from earlier work
[1] = MTT cytotoxicity assay, 72 h; type: cell-based, monkey; details: monkey, COS-7 cells; MTT, 72 h, N = 3
Method: (§1) Human hepatoma (HepG2) and fibroblast-like monkey kidney cells (COS-7) were cultured in Dulbecco’s Modified Eagle Medium supplemented with 10% heat-inactivated fetal bovine serum and gentamycin (40 mg/L) at 37°C in a 5% CO2 atmosphere. Cytotoxicity of test compounds was measured by metabolic reduction of mitochondrial enzymes using the MTT assay (3-[4,5-dimethyl-thiazol-2-yl]-2,5-diphenyltetrazolium chloride). Cells were seeded at 10^5 cells/well in 96-well plates and incubated for 72 hours in the presence of a 2-fold 12-point serial dilution of drugs along with drug-free controls. After adding 15 μL of MTT (5 mg/mL) to the wells, plates were centrifuged at 317g for 5 minutes and the pellet was resuspended in isopropanol. Absorbance was measured at 570 nm (CLARIOStar, Labtech BMG). Cell viability was determined by formazan production, and was expressed as a percentage of untreated control wells.

COS-7 cells = assay: MTT cytotoxicity assay, 72 h; type: cell-based, monkey
Method: as §1

[2] = MTT cytotoxicity assay, 72 h; type: cell-based, Human; details: human, HepG2 cells; MTT, 72 h, N = 3
Method: as §1

HepG2 cells = assay: MTT cytotoxicity assay, 72 h; type: cell-based, Human
Method: as §1

[3] = Host cell confluency, Alamar Blue; type: cell-based, human; details: human, pH 7; maximum concentration of 4 μM; read-out: Huh-7 cell viability
Method: (§2) In vitro inhibition of Plasmodium liver stage infection was assessed using bioluminescence data from Huh-7 cells infected with a firefly-luciferase-expressing P. berghei line, PbGFP-Luccon, in the presence of various compound concentrations. […] One day before drug treatment and infection, 10^4 Huh-7 cells/well were seeded in 96-well plates. The medium was then replaced by an infection medium (culture medium supplemented with 50 μg/mL gentamycin and 0.8 μg/mL amphotericin B) containing desired concentrations of test compounds. Fresh sporozoites recovered from salivary glands of infected female Anopheles stephensi mosquitoes were added to seeded Huh-7 cells at a 1:1 proportion, followed by centrifugation at 1700g for 5 minutes and incubation for 46 hours at 37°C under 5% CO2. Compound toxicity against Huh-7 cells was assessed by measuring […] using the Alamar Blue assay (Invitrogen). IC50 values were calculated using nonlinear regression analysis (GraphPad Prism version 9).

Huh-7 cells = assay: Host cell confluency, Alamar Blue; type: cell-based, human
Method: as §2

[4] = system: P. falciparum Dd2-Pol δ parasites; assay: Single-step in vitro resistance selection; type: cell-based, Plasmodium falciparum
Method: (§3) Resistance to LDT-623 was assessed using single-step in vitro resistance selection protocols. […] Dd2-Pol δ is a hypermutable line with two point mutations in DNA polymerase δ that compromise its proofreading activity Cultures were monitored daily by thin blood smears until live parasites were no longer detectable. Drug-containing media was changed daily until parasites cleared, and every other day thereafter. Cultures were passaged once weekly by reducing the volume by 25% and replacing 1/3 of RBCs. Recrudescence monitoring was carried out twice a week by thin blood smears for 60 days. In the event of recrudescence, parasite susceptibility to LDT-623 was tested as described above.

[5] = system: P. falciparum Dd2-Polδ parent culture; assay: ABS susceptibility after resistance selection, parental line; type: cell-based, Plasmodium falciparum; details: for % Parasite survival: Dd2 Pol D parent, rep 1-5
Method: P. falciparum ABS parasites were cultured at 3% hematocrit in human O^+ RBCs in RPMI-1640 media supplemented with 25 mM HEPES, 50 mg/L hypoxanthine, 2 mM L-glutamine, 0.21% sodium bicarbonate, 0.5% (w/v) AlbuMAXII (Invitrogen) and 10 μg/mL gentamycin. Culture flasks were kept in modular incubator chambers (Billups-Rothenberg) in a 5% O2, 5% CO2, and 90% N2 atmosphere at 37°C. Synchronized ring-stage parasites were obtained by two consecutive rounds of treatment with 5% D-sorbitol in 48-hour intervals. […] This was done by exposing cultures at 1% hematocrit and 0.3% parasitemia in 96-well plates in the presence of drugs in a two-fold 10 or 12-point serial dilution in duplicate along with drug-free controls. After a 72-hour incubation, parasite survival was assessed by flow cytometry on an iQue flow cytometer (Sartorius) using SYBR Green and MitoTracker Deep Red FM (Life Technologies) as nuclear stain and vital dye, respectively. Parasite survival was determined as a percentage relative to drug-free control. IC50 values were interpolated from log concentration versus response curves in Prism 9 (GraphPad Prism Software Inc.).
as §3

[6] = Dd2T93S, mean ± SEM, ref 2 (Dhingra et al., 2019)

CCN(CC)CCCC(C)Nc1ccnc2cc(Cl)ccc12 (centres unmarked) [CQ, chloroquine]
IC50 (P. falciparum Dd2^Dd2; Dd2Dd2, mean ± SEM, ref 1 (Ross et al., 2018)): 156 ± 9.3 nM
IC90 (P. falciparum Dd2^Dd2; Dd2Dd2, mean ± SEM, ref 2 (Dhingra et al., 2019)): 214 ± 7.4 nM
Phenotype, Dd2^Dd2 (P. falciparum Dd2^Dd2; ref [19],[20],[51]): R
IC50 (P. falciparum Dd2^T93S; [6]): 61.9 ± 7.6 nM
IC90 (P. falciparum Dd2^T93S; [6]): 141 ± 6.3 nM
Phenotype, Dd2^T93S (P. falciparum Dd2^T93S; ref [19],[20],[51]): R
IC50 (P. falciparum Dd2^M343L; Dd2M343L, mean ± SEM, ref 1 (Ross et al., 2018)): 41.8 ± 1.9 nM
Phenotype, Dd2^M343L (P. falciparum Dd2^M343L; ref [19],[20],[51]): R
Phenotype, Dd2^3D7 (P. falciparum Dd2^3D7): S
IC50 (P. falciparum 7G8^C350R; 7G8C350R, mean ± SEM, ref 3 (Kim et al., 2019)): 6.9 ± 0.3 nM
Phenotype, 7G8^C350R (P. falciparum 7G8^C350R; ref [19],[20],[51]): S

COc1cc2nccc(Nc3cccc(Oc4ccccc4)c3)c2cc1OC [LDT-623]
CC50 at 72 h [1]: 500 ± 100 nM
SI (CC50 COS-7 / IC50 3D7) (COS-7 cells): 3.8
CC50 at 72 h [2]: 1300 ± 100 nM
SI (CC50 HepG2 / IC50 3D7) (HepG2 cells): 10
viability at 46 h, 4 µM [3]: > 86%
% Confluency (Huh-7 cells; 0.01 µM, Average): 101.66%
% Confluency (Huh-7 cells; 0.01 µM, Rep #1, Rep #2 singly, DMSO = 100): 99.85% and 103.48%
% Confluency (Huh-7 cells; 0.10 µM, Average): 101.70%
% Confluency (Huh-7 cells; 0.10 µM, Rep #1, Rep #2 singly, DMSO = 100): 101.55% and 101.85%
% Confluency (Huh-7 cells; 0.50 µM, Average): 106.57%
% Confluency (Huh-7 cells; 0.50 µM, Rep #1, Rep #2 singly, DMSO = 100): 104.91% and 108.24%
% Confluency (Huh-7 cells; 1.00 µM, Average): 99.74%
% Confluency (Huh-7 cells; 1.00 µM, Rep #1, Rep #2 singly, DMSO = 100): 99.78% and 99.70%
% Confluency (Huh-7 cells; 1.50 µM, Average): 103.34%
% Confluency (Huh-7 cells; 1.50 µM, Rep #2 only, DMSO = 100): 103.34%
% Confluency (Huh-7 cells; 2.00 µM, Average): 99.65%
% Confluency (Huh-7 cells; 2.00 µM, Rep #1, Rep #2 singly, DMSO = 100): 99.68% and 99.63%
% Confluency (Huh-7 cells; 3.00 µM, Average): 92.74%
% Confluency (Huh-7 cells; 3.00 µM, Rep #1, Rep #2 singly, DMSO = 100): 93.69% and 91.80%
% Confluency (Huh-7 cells; 4.00 µM, Average): 86.71%
% Confluency (Huh-7 cells; 4.00 µM, Rep #1 only, DMSO = 100): 86.71%
recrudescence under constant drug pressure ([4]; 3 × IC50 (1 μM), 1 × 10^9 parasites, 60 days): No parasite recrudescence
log minimum inoculum of resistance (MIR) ([4]; constant drug pressure): higher than 9
day of recrudescence ([4]; drug pressure removed after day 7, both flasks): 21 days
IC50 of recrudescent bulk parasites vs Dd2-Polδ parent ([4]; either flask): no difference in IC50
mean AUC of survival curve ([5]; Dd2-Polδ parent culture): 35.4
% Parasite survival ([5]; 0.09 uM): 76.35% and 85.80% and 91.78% and 97.25%
% Parasite survival ([5]; 0.19 uM): 89.20% and 72.57% and 70.57% and 79.41% and 83.99%
% Parasite survival ([5]; 25 uM): 0.00% and 0.89%
% Parasite survival ([5]; 50 uM): 0.00% and 1.83%

Source: publication PMC11521309, “A novel 4-aminoquinoline chemotype with multistage antimalarial activity and lack of cross-resistance with PfCRT and PfMDR1 mutants” (PLOS Pathogens, 2024)
